In patent publication US12516058B2, “Small-molecule compounds for controlling endosomal toll-like receptors and therapeutic agent for autoimmune diseases using same” (priority 2020, dated 2026):
Entries after “also recorded” stand apart in the source; their conditions may differ.

Legend:
RAW 264.7 cells = test: MTT cytotoxicity (LC50) and therapeutic index analysis; format: cell-based, mouse; settings: 24 h, among the 13 selected compounds
Protocol: RAW 264.7 cells were seeded at a density of 2×10^4 cells/well in a 96-well cell culture plate and stabilized overnight in a humidified incubator. Each well was treated with a test compound or negative control (dimethyl sulfoxide; DMSO). The plates were allowed to stand in an incubator for 24 hours. Then, the medium of the 96-well culture dish was discarded and 500 μg/ml MTT solution (InvivoGen Ltd.) was added to each well. After incubation for 3 hours, the solution was removed and the residue was incubated in DMSO (Biosesang Co. Ltd., Korea) for 30 minutes to completely dissolve the formazan dye. The absorbance was measured at a wavelength of 595 nm with a microplate colorimetric reader and normalized based on the untreated control. All cultures were performed under the same conditions as in the cell culture described above.
In order to plot the concentration-dependent LC50 curves, treatment with the SK series ligands at different concentrations up to 200 μM (the highest concentration that could be treated within the level of 0.5% DMSO) was performed. Then, cell viability and toxicity response upon treatment with ligands were analyzed by MTT as described in Examples 1-3. Cell viability in each plot was normalized from negative control (100%; no treatment) to positive control (highest concentration of test-ligand), and LC50 was determined by non-linear regression (Graph Pad Prism 7.0). In order to plot the concentration-dependent IC50 curves, pre-treatment with the SK series ligands was performed at different concentrations up to 50 μM (twice the initial concentration). Cell responses mediated by TLR7 and TLR9 (levels of TNF-α secretion) were analyzed by ELISA as described in Examples 1-4. The cytokine level in each plot was normalized from negative control (non-treated) to positive control (treatment with ligand), and IC50 was determined by non-linear regression (Graph Pad Prism 7.0).
Then, LC50 and IC50 were applied to the following function to calculate TI.

TLR8 = molecular target: T1, TLR8 (Mus musculus, UniProt P58682); test: TNF-α secretion ELISA after TLR8 agonist TL8-506 in RAW 264.7 cells; format: cell-based; settings: SK41, SK50, SK58, SK64
T1 construct: endogenous in cells; host or cells: RAW 264.7
T1 sequence (P58682 24-1032): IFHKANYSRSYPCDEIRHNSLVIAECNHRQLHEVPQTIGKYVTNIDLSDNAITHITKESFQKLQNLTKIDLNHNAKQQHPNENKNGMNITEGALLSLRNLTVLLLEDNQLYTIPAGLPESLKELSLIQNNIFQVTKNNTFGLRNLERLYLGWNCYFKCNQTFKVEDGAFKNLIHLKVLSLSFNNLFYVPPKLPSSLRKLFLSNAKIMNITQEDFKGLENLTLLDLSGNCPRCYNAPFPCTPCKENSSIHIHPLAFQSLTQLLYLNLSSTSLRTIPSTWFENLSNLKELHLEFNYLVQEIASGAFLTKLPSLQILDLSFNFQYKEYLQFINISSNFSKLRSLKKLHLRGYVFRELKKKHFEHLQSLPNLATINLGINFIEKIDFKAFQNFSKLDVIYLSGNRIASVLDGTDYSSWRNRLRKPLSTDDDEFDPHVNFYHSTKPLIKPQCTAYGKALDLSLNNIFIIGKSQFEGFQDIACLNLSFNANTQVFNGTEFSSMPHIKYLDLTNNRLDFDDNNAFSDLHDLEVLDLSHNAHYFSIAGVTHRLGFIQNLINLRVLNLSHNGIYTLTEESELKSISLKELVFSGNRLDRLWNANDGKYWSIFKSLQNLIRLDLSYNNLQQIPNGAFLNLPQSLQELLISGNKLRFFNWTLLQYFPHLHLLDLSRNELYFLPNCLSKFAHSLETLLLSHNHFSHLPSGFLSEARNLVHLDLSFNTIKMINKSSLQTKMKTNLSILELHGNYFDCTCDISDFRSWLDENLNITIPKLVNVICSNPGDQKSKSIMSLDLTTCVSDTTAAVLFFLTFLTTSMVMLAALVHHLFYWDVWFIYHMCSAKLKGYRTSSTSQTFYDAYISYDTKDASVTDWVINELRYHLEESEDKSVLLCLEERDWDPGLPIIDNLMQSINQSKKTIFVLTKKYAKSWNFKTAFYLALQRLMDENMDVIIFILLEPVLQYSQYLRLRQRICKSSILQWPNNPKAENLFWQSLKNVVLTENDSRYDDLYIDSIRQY
Protocol: In order to determine the inhibitory activities of the test-ligand, RAW 264.7 cells were pretreated with each candidate compound for 1 hour, then treated with Pam3CSK4 (synthetic triacyl lipopeptide; TLR1/2, Invitrogen), FSL-1 (synthetic diacyl lipoprotein, TLR2/6, 100 ng/ml), lipopolysaccharide (LPS, TLR4, Sigma Aldrich), imiquimod (IMQ, TLR7, Invitrogen), and ODN2395 (type C CpG repeat motif DNA oligo(5′-[…]-3), TLR9, Bioneer) ligand for 4 hours, and treated with poly I:C (I:C repeat motif double-stranded RNA, TLR3, Invitrogen) and TL8-506 (TLR8, Invitrogen) showing delayed reactivity for 24 hours. After activation of TLR, the supernatant was diluted in an appropriate ratio so as to measure within the standard dose range, transferred to a pre-coated 96-well assay plate, and then treated with mouse TNF-alpha secretion level in accordance with the manufacturer's instructions using a mouse-TNF-alpha ELISA-kit (Invitrogen).
In order to determine the inhibitory activities of SK41, SK50, SK58 and SK64 on various TLR signaling pathways, RAW 264.7 cells were cultured along with each compound and then stimulated with different TLR agonists. The TLR agonists used herein were Pam3CSK4 (TLR1/2), FSL-1 (TLR2/6), LPS (TLR4) and FLA-ST (TLR5) as cell surface TLRs, and poly I:C (TLR3) and TL8-506 (TLR8) as endosomal TLRs.

SMILES | toxicity (LC50) (RAW 264.7 cells) | inhibitory activity against endosomal TLR8 (TNF-α secretion) (TLR8)
COC(=O)c1ccc2c(c1)c1c(N)c3c(nc1n2CCCN(C)C)CCCC3 [SK64, Methyl 11-amino-6-(3-(dimethylamino)propyl)-2,3,4,6-tetrahydro-1H-indolo[2,3-b]quinolin-9-carboxylate] | lower toxicity | strong inhibitory activity; also recorded: specific inhibitory activities
Cc1ccc2c(c1)c1c(N)c3c(nc1n2CCCN(C)C)CCCC3 [SK58, 6-(3-(dimethylamino)propyl)-9-methyl-2,3,4,6-tetrahydro-1H-indolo[2,3-b]quinolin-11-amine] | lower toxicity | strong inhibitory activity; also recorded: specific inhibitory activities
Cc1cc2c(N)c3c(nc2n1CCCN(C)C)CCCCCC3 [SK41, 1-(3-(dimethylamino)propyl)-2-methyl-5,6,7,8,9,10-hexahydro-1H-cycloocta[b]pyrrolo[3,2-e]pyridin-4-amine] | lower toxicity | strong inhibitory activity; also recorded: specific inhibitory activities
COc1ccc2c(c1)c1c(N)c3c(nc1n2CCCN(C)C)CCCC3 [SK50, 6-(3-(dimethylamino)propyl)-9-methoxy-2,3,4,6-tetrahydro-1H-indolo[2,3-b]quinolin-11-amine] | lower toxicity | strong inhibitory activity; also recorded: specific inhibitory activities
